Source: patent US20230110595A1, “MIXTURE OF PYRETHROIDS AND MILBEMYCINS AND USES THEREOF” (Valent BioSciences LLC, priority 2021, published 2023)

Columns and labels:
Assay type in all cases: in vivo
[1] = tested on: Permethrin Resistant C. quinquefasciatus; experiment: Wind tunnel bioassay, adult mosquitoes, Example 2 (September 2021)
Protocol: (§1) In this bioassay, a wind tunnel bioassay was performed in the United States of America in September 2021. Culex quinquefasciatus that were known to be resistant and susceptible to permethrin were used in the studies. The following solutions were applied to adult C. quinquefasciatus mosquitoes: 1) 0.5% moxidectin; 2) 0.5% pyrethrum; and 3) a mixture of 0.5% pyrethrum and 0.5% moxidectin.
(§2) Percent mortality was recorded at 15 minutes (“Min”), 1 hour (“Hr”), 24 hours and 48 hours. OCE:ECE ratios were calculated as in Example 1, above.

[2] = tested on: Permethrin Susceptible C. quinquefasciatus; experiment: as above
Protocol: as §1, §2

[3] = tested on: Permethrin Resistant C. quinquefasciatus; experiment: Wind tunnel bioassay, adult mosquitoes, Example 1 (May 2021)
Protocol: (§3) In this bioassay, a wind tunnel bioassay was performed in the United States of America in May 2021. Culex quinquefasciatus that were known to be resistant and susceptible to permethrin were used in the studies. The following solutions were applied to adult C. quinquefasciatus mosquitoes: 1) 1.5% moxidectin; 2) 5% permethrin; 3) 2.5% pyrethrum; 4) a mixture of 5% permethrin and 1.5% moxidectin; and 5) a mixture of 2.5% pyrethrum and 1.5% moxidectin.
(§4) To determine if the mixtures provided unexpected results, the observed combined efficacy (“OCE”) was divided by the expected combined efficacy (“ECE”) wherein the expected ECE is calculated by the Abbott method: […]
(§5) wherein ECE is the expected combined efficacy and in which A and B are the percent control given by the single active ingredients. If the ratio between the OCE of the mixture and the ECE of the mixture is greater than 1, then greater than expected interactions are present in the mixture. (Gisi, Synergistic Interaction of Fungicides in Mixtures, The American Phytopathological Society, 86:11, 1273-1279, 1996). Percent mortality was recorded at 15 minutes (“Min”), 1 hour (“Hr”), 24 hours and 48 hours.

[4] = tested on: Permethrin Susceptible C. quinquefasciatus; experiment: as above
Protocol: as §3, §4, §5

Row | Compound | % Mortality ([1]; 1 Hr) [%] | % Mortality ([1]; 15 Min) [%] | % Mortality ([1]; 24 Hr) [%] | % Mortality ([1]; 48 Hr) [%] | % Mortality ([2]; 1 Hr) [%] | % Mortality ([2]; 15 Min) [%] | % Mortality ([2]; 24 Hr) [%] | % Mortality ([2]; 48 Hr) [%] | % Mortality ([3]; 1 Hr) [%] | % Mortality ([3]; 15 Min) [%] | % Mortality ([3]; 24 Hr) [%] | % Mortality ([3]; 48 Hr) [%] | % Mortality ([4]; 1 Hr) [%] | % Mortality ([4]; 15 Min) [%] | % Mortality ([4]; 24 Hr) [%] | % Mortality ([4]; 48 Hr) [%] | control ([4]; span over 15 minutes to 48 hours) [%]
1 | CO/N=C1\C[C@]2(C[C@@H]3C[C@@H](C/C=C(\C)C[C@@H](C)/C=C/C=C4\CO[C@@H]5[C@H](O)C(C)=C[C@@H](C(=O)O3)[C@]45O)O2)O[C@H](/C(C)=C/C(C)C)[C@H]1C [0.5% Moxidectin, moxidectin] | 0.00 | 0.00 | 11.25 | 8.75 | 26.25 | 1.25 | 95.00 | 95.00 | – | – | – | – | – | – | – | – | –
2 | CO/N=C1\C[C@]2(C[C@@H]3C[C@@H](C/C=C(\C)C[C@@H](C)/C=C/C=C4\CO[C@@H]5[C@H](O)C(C)=C[C@@H](C(=O)O3)[C@]45O)O2)O[C@H](/C(C)=C/C(C)C)[C@H]1C [1.5% Moxidectin, moxidectin] | – | – | – | – | – | – | – | – | 0 | 15 | 68.75 | 50 | 67.5 | 53.75 | 92.5 | 92.5 | –
3 | CC1(C)C(C=C(Cl)Cl)C1C(=O)OCc1cccc(Oc2ccccc2)c1 (stereo not shown) [5% Permethrin, permethrin] | – | – | – | – | – | – | – | – | 81.25 | 35 | 97.5 | 96.25 | 100 | 100 | 100 | 100 | ~100
